System: bacteria on healthy skin (back of the hand)
Assay: Anti-microbial effectiveness of nitric oxide on volunteers' hands (swab, five zone dilution on agar, zone-based grading)
Type: in vivo
Text: An experiment 46 used to determine the anti-microbial effectiveness of nitric oxide is illustrated in FIG. 3. In the experiment, five volunteers were selected 48. From a first hand of each volunteer, a technician using sterile gloves collected 50 a sample. This was accomplished by rubbing the back of the volunteer's hand with a sterile cotton collection swab for ten seconds. The swab was then applied 52 to a nutrient agar petri dish using the five corner or zone dilution method.
The five corner or zone dilution method involves mechanically diluting bacteria on a streak (blood agar) plate by sequentially spreading the bacteria across the plate in each of five zones. As the concentration of bacteria increases so do the number of zones containing bacteria. Bacteria on agar plate become visible as distinct circular colonies. Each colony represents an individual cell which has divided repeatedly to form a patch. The number of bacteria can be estimated by counting the number of patches or how far the bacteria is diluted by streaking it on the agar plate through the five zones.
After the sample was collected 50, the first hand was cleaned 54 using nitric oxide. This was done by placing the hand of the volunteer into a one-gallon plastic freezer bag. The bag was then inflated with nitric oxide through tubing attached to a portable nitric oxide generator. The open end of the bag was taped closed against the volunteer's forearm. A nitric oxide monitor assisted in keeping the nitric oxide concentration within the bag at 1,000 parts-per-million (ppm).
The volunteer maintained the hand inside the bag for fifteen minutes. After the fifteen minutes, the hand was removed from the bag in a sterile manner (i.e., the hand was not permitted to contact any non-sterile objects). Using sterile gloves and a sterile cotton collection swab, the technician collected 56 a second sample by rubbing the swab on the back of the hand for ten seconds. The swab was then applied 58 to a nutrient dish as explained above.
A similar process was followed with the volunteer's other hand. […]

## [N]=O [nitric oxide]
Bacteria exposed to nitric oxide, microbes on healthy skin
  reductions in colony counts of bacteria: substantial reductions in colony counts
Direct comparison: immersing in enclosed environment of nitric oxide diluted with ambient air vs scrubbing with antibacterial soaps
  anti-microbial effects: superior to soaps
Hands exposed to 1,000 ppm nitric oxide for fifteen minutes, compared with hands washed with DIAL antibacterial soap for 2 minutes, five volunteers
  bacterial colony count: lower bacterial colony count

— US8501090B2, “Anti-microbial gas apparatus and method” (priority 2008, dated 2013)
